Measurements: patent US20140377340A1, “HLA-DR BINDING PEPTIDES AND THEIR USES” (priority 2007, published 2014)

Tests used:
purified HLA DRB1*0301 = biological target: T1, purified HLA DRB1*0301 (Homo sapiens, UniProt P01903+P01911, A100K/A102G/A103R/A169T/F55Y/I96L/K41T/L162R/M171V/P40S/Q125H/Q178H/Q39Y/R42S/S66N/T106N/T262R/W38E/Y61H); assay: HLA-DR radioligand binding inhibition assay, DRB1*0301; details: IC50 nM purified HLA DRB1 *0301, purified HLA DRB1*0301
T1 construct: purified from EBV transformed homozygous cell lines or single MHC allele transfected 721.221, C1R, or fibroblast lines; made in house
Description: (§1) Instead, wells of an opaque white 96-well Optiplate (Packard) are coated with 3 μg (100 μl@ 30 μg/ml) of HLA-specific antibody (Ab) that “capture” complexes of radiolabeled MHC and unlabeled peptide transferred from the molecular binding assay plate in 100 μl of 0.05% NP40/PBS. After a 3-hour incubation period, the supernatant is decanted and scintillation fluid (Microscint 20) added. Captured complexes are then measured on a microplate scintillation and luminescence counter (TopCount NXTTM; Packard).
(§2) HLA-DR purification. Fifteen distinct HLA-DR molecules were used in quantitative assays to measure the binding of peptides to solubilized HLA-DR molecules. […] Briefly, columns of inactivated Sepharose CL4B and Protein A Sepharose were used as pre-columns. HLA-DR molecules were captured by passage of lysates over LB3.1 monoclonal antibody (anti-HLA-DRA) columns. Antibody columns were washed with 10 mM Tris-HCL, pH8.0 with 1% (v/v) NP-40, followed by PBS containing 0.4% (w/v) n-octylglucoside.
(§3) Briefly, 1-10 nM of radiolabeled peptide was co-incubated for 2 days at either room temperature or 37° C. with 1 μM to 1 nM purified HLA-DR molecules in the presence of a cocktail of protease inhibitors. Assays were performed at various pH conditions, ranging from pH 4 to pH 7. […] After incubation, the percentage of HLA-DR-bound radioactivity is determined by capturing HLA-DR/peptide complexes on Optiplates (Packard Instruments, Meriden, Conn.) coated with the LB3.1 antibody and determining bound counts per minute using the TopCount microscintillation counter (Packard Instruments).

purified HLA DRB1*0404 = biological target: T2, purified HLA DRB1*0404 (Homo sapiens, UniProt P01903+P01911, A100R/A169T/F76Y/I96L/K127E/L162R/M171V/N62H/P40V/Q125Y/R42H/S133A/S149N/S66Y/V209L/W38E); assay: HLA-DR radioligand binding inhibition assay, DRB1*0404; details: IC50 nM purified HLA DRB1 *0404, purified HLA DRB1*0404
T2 construct: purified from EBV transformed homozygous cell lines or single MHC allele transfected 721.221, C1R, or fibroblast lines; made in house
Method in brief: (§4)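 First, HLA-DR was purified from lysates on LB3.1 columns. Then 1 μM to 1 nM protein was incubated 2 days with 1-10 nM radiolabeled peptide at pH 4 to 7. Finally, complexes were captured for 3 hours and bound cpm determined.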

purified HLA DRB1*0802 = biological target: T3, purified HLA DRB1*0802 (Homo sapiens, UniProt P01903+P01911, A100R/A103L/A169T/F76Y/H45Y/I96F/K41T/L162R/M171V/P40S/Q125H/Q178H/Q39Y/Q99D/R218S/R42G/S66Y/V115G/W38E); assay: HLA-DR radioligand binding inhibition assay, DRB1*0802; details: IC50 nM purified HLA DRB1 *0802, purified HLA DRB1*0802
T3 construct: purified from EBV transformed homozygous cell lines or single MHC allele transfected 721.221, C1R, or fibroblast lines; made in house
Description: as §1
as §2, with “n-octylglucoside. […] The pH was reduced to 8.0 and the eluates were concentrated by centrifugation in Centriprep 30 concentrators at 2000 rpm (Amicon, Beverly, Mass.).” for “n-octylglucoside.”
as §3, with “Instruments). […] Competitor peptides are tested in 2-4 complete, independent experiments, at concentrations ranging from […].” for “Instruments).”

purified HLA DRB1*1101 = biological target: T4, purified HLA DRB1*1101 (Homo sapiens, UniProt P01903+P01911, A100R/A169T/A87E/I96F/K41T/L162R/M171V/P40S/Q125H/Q178H/Q39Y/Q99D/R42S/S66Y/T262R/V115G/W38E); assay: HLA-DR radioligand binding inhibition assay, DRB1*1101; details: IC50 nM purified HLA DRB1 *1101, purified HLA DRB1*1101
T4 construct: purified from EBV transformed homozygous cell lines or single MHC allele transfected 721.221, C1R, or fibroblast lines; made in house
T4 sequence (P01903 26-254, other chains not shown): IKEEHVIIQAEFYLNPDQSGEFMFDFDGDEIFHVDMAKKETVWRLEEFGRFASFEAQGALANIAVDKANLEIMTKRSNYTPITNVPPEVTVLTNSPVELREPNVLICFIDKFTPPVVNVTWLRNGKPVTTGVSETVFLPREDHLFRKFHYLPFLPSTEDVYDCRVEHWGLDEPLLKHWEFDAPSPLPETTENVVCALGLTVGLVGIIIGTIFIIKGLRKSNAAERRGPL
Method in brief: as §4

purified HLA DRB1*1201 = biological target: T5, purified HLA DRB1*1201 (Homo sapiens, UniProt P01903+P01911, A100R/A169T/D57E/D86V/F55L/H45Y/K41T/L162R/M171V/P40S/Q125H/Q178H/Q39Y/Q99D/R42G/S66L/T262R/V114A/V67L/W38E/Y59H/Y61H/Y89S); assay: HLA-DR radioligand binding inhibition assay, DRB1*1201
T5 construct: purified from EBV transformed homozygous cell lines or single MHC allele transfected 721.221, C1R, or fibroblast lines; made in house
Description: as §1
as §2, with “n-octylglucoside. […] The pH was reduced to 8.0 and the eluates were concentrated by centrifugation in Centriprep 30 concentrators at 2000 rpm (Amicon, Beverly, Mass.).” for “n-octylglucoside.”
as §3, with “Instruments). […] Competitor peptides are tested in 2-4 complete, independent experiments, at concentrations ranging from […].” for “Instruments).”

purified HLA DRB3*0101 = biological target: T6, purified HLA DRB3*0101 (Homo sapiens, UniProt P01903+P79483); assay: HLA-DR radioligand binding inhibition assay, DRB3*0101; details: IC50 nM purified HLA DRB3 *0101, purified HLA DRB3*0101
T6 construct: purified from EBV transformed homozygous cell lines or single MHC allele transfected 721.221, C1R, or fibroblast lines; made in house
Description: as §1
as §2, with “n-octylglucoside. […] The pH was reduced to 8.0 and the eluates were concentrated by centrifugation in Centriprep 30 concentrators at 2000 rpm (Amicon, Beverly, Mass.).” for “n-octylglucoside.”
as §3, with “Instruments). […] Competitor peptides are tested in 2-4 complete, independent experiments, at concentrations ranging from […].” for “Instruments).”

[1] = test system: peptide-specific T cells in PBMC; assay: 10-day interferon-gamma ELIspot with PBMC of breast or ovarian cancer patients and healthy controls; assay type: cell-based, human; details: fraction of breast or ovarian cancer patients with mean T cell values above cutoff (mean + 2 SD of healthy donors)
From the text: Each panel represents a unique peptide and each data point is derived from one individual. The grey box (i.e. cutoff) delineates the region that constitutes the mean and two standard deviations calculated from the normal healthy individuals. The percentages represent the fraction of patients that had mean T cell values above the cutoff. The peptides that are circled are those in which a higher fraction of the patients responded compared to the normal healthy controls. These peptides are considered to be the best vaccine candidates. However, it is clear that the rigidness of this approach could potentially result in many false negatives. […] Despite this, we identified 5 candidates to move forward. The fidelity of this approach is evident from a prior study which has already shown that a HER-2/neu peptide, p884-899, which encompasses the binding motif of p885, is an HLA-DR4 epitope.
Enzyme-linked immunosorbent spot assay. A 10-day ELlspot for detecting low-frequency T cells was used to determine reactivity to the tumor antigen peptides (Table 1) as described (Knutson K L et al. J Clin Onc 2006;24: 4254-61). […] PMA/Ionomycin and the CEF pool were used as positive non-tumor related controls as previously described (Knutson, 2006).
Using predictive algorithms discussed above, candidate HLA-DR1-binding epitopes were identified. […] An interferon-gamma ELIspot assay was used to assess immunity to the indiscriminate binding peptides in 48 patients with either breast or ovarian cancer and 18 healthy controls.
Using an ELlspot assay with a limit of detection of approximately […], patient-derived PBMC were screened for reactivity against all of the HLA-DR binding peptides.

[2] = test system: 15 different HLA-DR molecules; assay: HLA-DR binding assays, panel of 15 different HLA-DR molecules (breadth of binding); details: number of the 15 HLA-DR molecules bound (binders: 1000 nM or better)
purified HLA DRB1*0401 = biological target: T7, purified HLA DRB1*0401 (Homo sapiens, UniProt P01903+P01911, A100K/A169T/F76Y/I96L/K127E/L162R/M171V/N62H/P40V/Q125Y/R42H/S133A/S149N/S66Y/V115G/V209L/W38E); assay: HLA-DR radioligand binding inhibition assay, DRB1*0401; details: IC50 nM purified HLA DRB1 *0401, purified HLA DRB1*0401
T7 construct: purified from EBV transformed homozygous cell lines or single MHC allele transfected 721.221, C1R, or fibroblast lines; made in house
Method in brief: as §4

IC50 (purified HLA DRB1*0301) [nM] | IC50 (purified HLA DRB1*0404) [nM] | IC50 (purified HLA DRB1*0802) [nM] | IC50 (purified HLA DRB1*1101) [nM] | IC50 (purified HLA DRB1*1201) [nM] | IC50 (purified HLA DRB3*0101) [nM] | Total XRN [2] | IC50 (purified HLA DRB1*0401) [nM] | SMILES | Percent of patients with responses [1] [%]
74 | 7000 | > 20000 | > 20000 | > 20000 | > 20000 |  |  | CC[C@H](C)[C@H](NC(=O)[C@H](CO)NC(=O)[C@@H]1CCCN1C(=O)[C@H](CCCCN)NC(=O)[C@@H]1CCCN1C(=O)[C@H](CC(C)C)NC(=O)[C@H](CCC(=O)O)NC(=O)[C@H](C)NC(=O)[C@H](CO)NC(=O)[C@@H](NC(=O)[C@@H](NC(=O)[C@@H](NC(=O)[C@@H](N)[C@@H](C)O)[C@@H](C)CC)[C@@H](C)O)C(C)C)C(=O)N[C@@H](CO)C(=O)N[C@@H](CO)C(=O)O [Peptide 9019.0132] | 
 |  |  |  |  |  | 9 |  | CC(C)C[C@H](NC(=O)[C@H](CC(N)=O)NC(=O)[C@H](CO)NC(=O)[C@@H](NC(=O)[C@H](Cc1ccccc1)NC(=O)[C@H](CS)NC(=O)[C@H](C)NC(=O)[C@@H](N)Cc1ccc(O)cc1)C(C)C)C(=O)N[C@@H](C)C(=O)N[C@H](C(=O)NCC(=O)N[C@@H](CCCNC(=N)N)C(=O)N[C@@H](CC(N)=O)C(=O)N[C@@H](CC(N)=O)C(=O)N[C@@H](CO)C(=O)O)[C@@H](C)O [Peptide 9019.0141] | 25
> 20000 |  | > 20000 |  | > 20000 | > 20000 |  | 360 | CSCC[C@H](NC(=O)[C@H](C)NC(=O)[C@@H](N)CCCNC(=N)N)C(=O)N[C@@H](CC(C)C)C(=O)N[C@@H](CCCCN)C(=O)N[C@@H](C)C(=O)N[C@@H](CCC(=O)O)C(=O)N[C@@H](CCC(=O)O)C(=O)N[C@H](C(=O)N[C@@H](CS)C(=O)N[C@@H](C)C(=O)N1CCC[C@H]1C(=O)N[C@@H](CO)C(=O)N[C@H](C(=O)N[C@@H](CO)C(=O)O)C(C)C)[C@@H](C)O [Peptide 9019.0148] | 
